pEC50, pIC50: −log10 of the molar value. Activity calls are given as the source filed them.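 The calls were made as follows: active = compounds giving half or more protection of infected cells from virus-caused growth loss, again on retest; inactive = the rest.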 Where a SMILES comes first, the peptide text is derived from it.
Test system: CEM cells HIV-1 protection, formazan growth assay
Experiment: NCI AIDS Antiviral Assay
Details: for pIC50: measured here: growth of uninfected CEM cells
Method in brief: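 Soluble formazan readout of cell growth; CEM cells ± HIV-1; 5 drug concs. ≥50% protection → retest; ≥50% again = moderately active; reproducible 100% = confirmed active.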

Structure (SMILES) | pEC50 | pIC50 | outcome
Nc1c(N=Nc2ccc([N+](=O)[O-])cc2)c(S(=O)(=O)O)cc2cc(S(=O)(=O)O)c(N=Nc3ccc(-c4ccc(N=Nc5ccc(O)cc5)cc4)cc3)c(O)c12 | < 4.00 | 4.82 | 
CSCCC(NC(=O)Cc1ccc(C(=O)c2ccccc2)cc1)C(=O)N1CCN(CCCCN2c3ccccc3Sc3cc(N=[N+]=[N-])ccc32)CC1 (configuration not stated) | < 3.70 | 4.48 | 
O=C(Nc1ccccn1)c1ccccc1[Se][Se]c1ccccc1C(=O)Nc1ccccn1 | 5.45 | 5.09 | 
O=C(NC/C(Cl)=C/Cl)Nc1c2ccccc2nc2ccccc12 | < 3.70 | 4.66 | 
CC1(c2nc3cc(Cl)c(Cl)cc3[nH]2)CCC(CO)C(C)(C)O1 (configuration not stated) |  |  | inactive
CC#CC#C/C=C1\C=CC2(OC=CC2OC(C)=O)O1 (configuration not stated) |  |  | inactive
c1ccc(-c2c3ccccc3[o+]c3ccccc23)cc1 | < 3.70 | 4.48 | 
Cc1ccc(/C(O)=C/c2nc3ccc([N+](=O)[O-])cc3nc2/C=C(\O)c2ccc(C)cc2)cc1 | < 4.00 | 4.01 | 
Cc1cc(N(CCC#N)CCC#N)ccc1/C=C(\NC(=O)/C=C/c1ccccc1)C(=O)NN |  |  | inactive
Cc1ccc(N2C(=O)/C(=C/c3ccc(N(CCC#N)CCC#N)cc3)CC2(O)c2ccccc2)cc1 (configuration not stated) | < 5.10 | < 5.10 | 
CCCCCCCCC(O)c1ccc(/C=C\C(O)CCCC(=O)O)s1 (configuration not stated) | < 4.20 | < 4.20 | 
O=C(O)c1cc2ccccc2c(=O)s1 | < 3.48 | < 3.48 | 
O=C(NCc1ccc(Cl)c(Cl)c1)c1nc2ccccc2nc1NCc1ccc(Cl)c(Cl)c1 | < 3.90 | 4.26 | 
N#CCCN(C(=O)Nc1ccccc1)[C@H]1CCCC[C@@H]1N(C(=O)Nc1ccccc1)c1ccccc1 | < 3.70 | 4.48 | 
COc1cccc(/C=C2\Cc3ccccc3C2=O)c1 | < 5.38 | < 5.38 | 
CCOC(=O)/C=C/SCCNC(=O)OCC | < 3.69 | 3.92 | 
COC(=O)CCC1CCc2c(OC)ccc(OC)c2C1=O (configuration not stated) |  |  | inactive
CN(C)CN1C(=O)S/C(=C2\C(=O)N(CN(C)C)c3ccccc32)C1=O | < 3.70 | 4.42 | 
COc1ccc2[nH]c3c(C)c4ccnc(NCCCN(C)CCCNC(=O)NCCCN(C)CCCNc5nccc6c(C)c7[nH]c8ccc(OC)cc8c7c(C)c56)c4c(C)c3c2c1 | < 5.30 | 6.05 | 
N#CC1Nc2ccccc2[C@@H](O)C1O (some centres not stated) | < 2.88 | 3.62 | 
O=c1[nH]c(=O)n([C@@H]2C[C@H](CO)[C@H](O)C2)cc1/C=C/Br | < 3.12 | 3.56 | 

Structure (SMILES) | pEC50 | pIC50 | outcome
COc1cc2c(cc1OC)[C@H](C(=O)O)[C@@H](c1ccc(OC(C)C)c(OC)c1)N(C)C2=O | < 3.70 | < 3.70 | 
O=[N+]([O-])c1ccc(Cl)cc1N/N=C/c1cccs1 | < 3.70 | < 4.00 | 
CCC(=O)OC1CCn2c1nc1c2C(=O)C(C)=C(NC(C)=O)C1=N (configuration not stated) | < 3.70 | 5.45 | 
C=C1C(=O)O[C@H]2[C@H]1CC(=O)/C(C)=C/CC[C@@]1(C)O[C@@H]21 | < 5.70 | 6.10 | 
CC(C)CC(NC(=O)C(Cc1ccc(O)cc1)NC(=O)C(CO)NC(=O)C(C)NC(=O)C(CO)NC(=O)C(CCC(=O)O)NC(=O)C(NC(=O)C(N)CCC(=O)O)C(C)C)C(=O)NC(CCCN=C(N)N)C(=O)NC(CCCCN)C(=O)O (configuration not stated) (H-EVESASYLRK-OH; configuration not given here) |  |  | inactive
O=C(/C=C\c1cccc2ccccc12)c1ccc(Br)cc1 | < 5.51 | < 5.51 | 
Cc1c2c(cc3c1C(=O)C(=O)C1=C3OCC1C)C(C)(C)CCC2 (configuration not stated) |  |  | inactive
CCc1cccc(C(C)C)c1NC(=O)C(=O)C(c1ccccc1)S(=O)(=O)Cc1ccccc1 (configuration not stated) | < 3.70 | < 3.70 | 
O=[N+]([O-])c1ccc(-c2nc(N(CCO)CCO)c3ccccc3n2)o1 | < 3.70 | 6.48 | 
CC(C#N)N(C(C)C#N)N(C)C (configuration not stated) |  |  | inactive
CC1OC(c2ccc3c(c2O)C(=O)C2=C(C3=O)[C@H]3OC(=O)C[C@H]3O[C@@H]2C)CC(N(C)C)C1O (some centres not stated) | < 3.97 | 7.27 | 
O=c1ccc2ccccc2c2ccccc12 | < 3.93 | 5.78 | 
COC(=O)C1=NOC2C(=O)N(c3ccccc3)C(=O)C12 (configuration not stated) | < 3.70 | < 3.70 | 
O=C1/C(=C/c2ccco2)NC(=S)N1CN1CCOCC1 | < 3.70 | 4.04 | 
S=C(N/N=C/c1ccccn1)N1CCCCCC1 | < 6.70 | 7.98 | 
CC(C)(C)NC(=O)NC12CC3CC(CC(F)(C3)C1)C2 | < 4.57 | < 4.57 | 
c1cc[c]([Sn]([S]c2ccccn2)([c]2ccccc2)[c]2ccccc2)cc1 | < 5.70 | 6.47 | 
C[C@]12CCC3C(CC[C@H]4C/C(=C/C#N)CC[C@]34C)C1CC/C2=C\C#N (some centres not stated) | < 4.00 | 4.59 | 
COC(=O)C12CCCN1CCC2 | 4.58 | < 3.70 | 
Cc1ccc2[nH]c3c(ncc4[nH]c5ccccc5c43)c2c1 | < 4.72 | 5.41 | 
S=C1Nc2ccccc2SC1c1ccccc1 (configuration not stated) | < 3.70 | 4.50 | 

Structure (SMILES) | pEC50 | pIC50 | outcome
C[C@H](NC(=O)c1ccccc1SC(=O)OCCCCCl)C(N)=O | 4.68 | < 3.70 | 
O=C(NCCO)c1c(CN(CCO)CCO)n([O-])c2ccccc2[n+]1=O | < 3.31 | 3.34 | 
CC12CCC([C@H](Nc3cc(C(F)(F)F)cc(C(F)(F)F)c3)C1=O)C2(C)C (some centres not stated) | < 4.70 | < 4.70 | 
CC(=O)Nc1nc(Cl)cc(NCC2(CO)CCC2)n1 | < 3.70 | < 3.70 | 
NC(=O)c1oc([N+](=O)[O-])c(-c2ccccc2)c1-c1ccccc1 | < 3.70 | 4.82 | 
O=C(CC(=O)N1N=C(N2CCCCC2)CC1c1ccccc1)Nc1ccccc1 (configuration not stated) | < 3.70 | < 3.70 | 
Cc1oc2cc(O)ccc2c(=O)c1-c1ccccc1 | < 3.70 | 4.52 | 
C/C(CCn1[nH]c(=O)ccc1=O)=N\OCCCc1ccccc1 | < 3.38 | < 3.38 | 
COc1cc2c(=O)c3ccccc3oc2c(O)c1OC | < 3.70 | < 3.70 | 
CC(=O)Nc1ccc(C(C2=C(O)c3ccccc3C(=O)C2=O)C2=C(O)c3ccccc3C(=O)C2=O)cc1 | < 3.70 | 4.79 | 
O=C(CCN1CCN(CCC(=O)c2ccccc2)CC1)c1ccccc1 | < 3.70 | 5.04 | 
O=C(/N=N/C(=O)N1CCOCC1)N1CCOCC1 | 4.12 | 4.06 | 
CC(=O)OC1(C)C(=O)OC1(C)C(C)=O (configuration not stated) |  |  | inactive
O=C1CCCNn2c(nc3ncccc3c2=O)N1 | < 3.70 | 3.80 | 
NC(=O)c1c2n(c3ncnc(N)c13)C1OC(CO)C(O)C1S2 (configuration not stated) | < 3.41 | < 3.41 | 
CCC1=C2C(=O)c3ccccc3C2=C(C)S(=O)(=O)O1 | 3.59 | 3.58 | 
CCOC(=O)NC1=NCC(C)(C)S1 |  |  | inactive
O=C(Nc1nc(Cl)nc(Cl)n1)N1CCOCC1 | < 3.70 | < 3.70 | 
Cc1c(C(=O)NNc2ccccc2)n2c(=S)[nH]nc2c2ccccc12 | < 3.70 | 4.03 | 
CC1=Nc2nnnn2N=C(C)C1 | < 3.63 | < 3.63 | 
O=C(C=Nc1ccccc1C(=O)O)c1ccco1 | < 5.08 | < 5.08 | 

Reference: PubChem BioAssay AID179 (DTP/NCI, 2004)
